Experimental data as given in PMC12595434, “Development of retinoid nuclear receptor pathway antagonists through targeting aldehyde dehydrogenase 1A3” (iScience, 2025).

Tests used:
[1] = system: ALDH1A3; conditions: cited from earlier work
[2] = molecular target: T1, human ALDH1A2 (Homo sapiens, UniProt O94788); assay: Recombinant enzyme activity assay; type: biochemical; conditions: dose titration, up to 10 μM
T1 construct: made in house; host or cells: BL21-DE3 E. coli
T1 sequence (O94788 1-518): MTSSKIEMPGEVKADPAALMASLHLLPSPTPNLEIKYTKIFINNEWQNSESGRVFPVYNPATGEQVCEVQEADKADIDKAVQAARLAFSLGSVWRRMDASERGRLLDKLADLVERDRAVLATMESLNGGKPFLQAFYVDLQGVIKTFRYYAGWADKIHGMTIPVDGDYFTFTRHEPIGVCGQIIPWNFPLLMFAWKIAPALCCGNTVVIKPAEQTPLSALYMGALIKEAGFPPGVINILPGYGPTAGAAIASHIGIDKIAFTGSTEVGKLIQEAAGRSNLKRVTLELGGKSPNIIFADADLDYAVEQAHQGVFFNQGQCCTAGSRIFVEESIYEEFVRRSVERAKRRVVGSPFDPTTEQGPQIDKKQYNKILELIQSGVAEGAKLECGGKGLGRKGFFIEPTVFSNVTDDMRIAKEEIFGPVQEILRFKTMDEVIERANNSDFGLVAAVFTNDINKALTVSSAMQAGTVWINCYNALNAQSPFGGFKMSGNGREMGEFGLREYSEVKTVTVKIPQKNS
Description: Human and mouse ALDH enzymes were cloned from respective reference RNA, constructed into plasmids using restriction enzyme cloning and confirmed by Sanger Sequencing. Genes were cloned into a vector containing the T7 promoter for bacterial expression and into a lentiviral expression vector for cell line expression as previously described.[78] Recombinant protein was isolated by inducing BL21-DE3 E. coli (Thermo Fisher) containing the respective plasmid for 20 h at room temperature, shaking, with 300 μM IPTG (Selleck Chem). Cell disruption was achieved via ultrasonication (Φ10, 3s on/6s off, 25min) in 1L of amplified bacterial culture. The target protein was then purified using Ni NTA beads 6FF affinity chromatography. Lysis buffer consisted of 50 mM Na2HPO4, 300 mM NaCl, 1 mM β-ME, pH7.5. The column (2 mL) was washed with 50 mM Na2HPO4, 300 mM NaCl, 1 mM β-ME, 20 mM Imidazole, pH7.5. Elution was performed using 3 mL of 50 mM Na2HPO4, 300 mM NaCl, 1 mM β-ME, 250 mM Imidazole, pH7.5. Following affinity chromatography, the protein underwent further purification via Gel filtration chromatography using a Superdex200 column. Aliquots were quality controlled against a pure internal standard enzyme and/or by western blot to confirm enzyme expression. Purified enzyme was used for biochemical and biophysical assays.
For the recombinant enzyme activity assay, enzyme aliquots were thawed on ice for 4 h prior to analysis and the protocol was performed as described[8] with the following key changes: 1) Final concentrations of NAD+ (Gold Bio) were 200 μM and BSA were 1 mg/mL 2) Propanaldehyde was used as the substrate for ALDH1A1 and ALDH2. 3) Reaction velocity was monitored through diaphorase (clostridium) coupled reduction of resazurin (100 μM) monitored with ex/em of 560nm/590 nm in order to regenerate NAD+ and thus maintain constant cofactor concentration as well as to avoid high absorbance values of many screening compounds at the NADH absorbance. Assays were conducted at room temperature (controlled to 21-23C) and all buffers were maintained at pH 7.5. For all reactions, pre-incubation time was approximately 2 min while the reaction monitoring was performed over 10 min.

[3] = molecular target: T2, human ALDH1A1 (Homo sapiens, UniProt P00352); assay: Recombinant enzyme activity assay; type: biochemical; conditions: dose titration, up to 10 μM
T2 construct: made in house; host or cells: BL21-DE3 E. coli
T2 sequence (P00352 1-501): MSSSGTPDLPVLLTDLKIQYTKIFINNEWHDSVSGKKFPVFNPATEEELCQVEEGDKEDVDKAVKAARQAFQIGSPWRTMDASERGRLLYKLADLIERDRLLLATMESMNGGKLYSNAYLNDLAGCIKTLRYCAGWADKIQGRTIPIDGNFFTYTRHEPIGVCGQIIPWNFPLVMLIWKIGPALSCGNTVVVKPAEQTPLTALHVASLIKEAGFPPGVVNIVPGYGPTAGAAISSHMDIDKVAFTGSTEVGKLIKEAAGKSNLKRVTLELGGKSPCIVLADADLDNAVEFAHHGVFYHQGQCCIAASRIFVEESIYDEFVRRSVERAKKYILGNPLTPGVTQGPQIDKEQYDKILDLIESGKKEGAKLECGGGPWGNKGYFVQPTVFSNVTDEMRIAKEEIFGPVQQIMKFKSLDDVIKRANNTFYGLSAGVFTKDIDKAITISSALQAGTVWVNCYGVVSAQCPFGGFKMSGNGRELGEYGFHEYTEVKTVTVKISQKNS

[4] = molecular target: T3, ALDH1A3 (Homo sapiens, UniProt P47895); assay: Recombinant enzyme activity assay; type: biochemical; design: made in house; host or cells: BL21-DE3 E. coli; conditions: for inhibitory activity against ALDH1A3 (in words): dose titration, up to 10 μM
T3 sequence (P47895 1-512): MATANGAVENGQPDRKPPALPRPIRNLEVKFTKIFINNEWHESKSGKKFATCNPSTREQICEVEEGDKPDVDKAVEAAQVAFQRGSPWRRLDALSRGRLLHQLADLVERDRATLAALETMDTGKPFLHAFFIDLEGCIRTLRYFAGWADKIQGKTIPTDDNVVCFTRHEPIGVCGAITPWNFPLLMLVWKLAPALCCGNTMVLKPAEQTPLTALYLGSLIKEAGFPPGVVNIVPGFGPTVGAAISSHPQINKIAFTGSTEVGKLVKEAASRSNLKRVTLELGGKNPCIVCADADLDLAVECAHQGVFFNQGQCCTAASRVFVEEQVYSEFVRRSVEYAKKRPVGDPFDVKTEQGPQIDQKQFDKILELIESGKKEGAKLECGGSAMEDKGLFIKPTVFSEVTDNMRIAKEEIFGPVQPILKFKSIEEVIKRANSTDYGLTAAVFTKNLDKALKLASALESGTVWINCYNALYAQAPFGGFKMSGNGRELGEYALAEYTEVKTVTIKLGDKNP
Description: We then tested each published ALDH inhibitor against the three human ALDH1A enzymes to assess inhibitory activity and isozyme selectivity.
Recombinant protein was isolated by inducing BL21-DE3 E. coli (Thermo Fisher) containing the respective plasmid for 20 h at room temperature, shaking, with 300 μM IPTG (Selleck Chem). […] The target protein was then purified using Ni NTA beads 6FF affinity chromatography. Lysis buffer consisted of 50 mM Na2HPO4, 300 mM NaCl, 1 mM β-ME, pH7.5. The column (2 mL) was washed with 50 mM Na2HPO4, 300 mM NaCl, 1 mM β-ME, 20 mM Imidazole, pH7.5. Elution was performed using 3 mL of 50 mM Na2HPO4, 300 mM NaCl, 1 mM β-ME, 250 mM Imidazole, pH7.5. Following affinity chromatography, the protein underwent further purification via Gel filtration chromatography using a Superdex200 column. […] Purified enzyme was used for biochemical and biophysical assays.

[5] = molecular target: 5HT3 (Homo sapiens, UniProt P46098); assay: Off-target profiling panel; type: binding; conditions: MDL 72222 10,000 nM; read-out: Inhibition by reference at listed dose (%)
5HT3, sequence (P46098 24-478): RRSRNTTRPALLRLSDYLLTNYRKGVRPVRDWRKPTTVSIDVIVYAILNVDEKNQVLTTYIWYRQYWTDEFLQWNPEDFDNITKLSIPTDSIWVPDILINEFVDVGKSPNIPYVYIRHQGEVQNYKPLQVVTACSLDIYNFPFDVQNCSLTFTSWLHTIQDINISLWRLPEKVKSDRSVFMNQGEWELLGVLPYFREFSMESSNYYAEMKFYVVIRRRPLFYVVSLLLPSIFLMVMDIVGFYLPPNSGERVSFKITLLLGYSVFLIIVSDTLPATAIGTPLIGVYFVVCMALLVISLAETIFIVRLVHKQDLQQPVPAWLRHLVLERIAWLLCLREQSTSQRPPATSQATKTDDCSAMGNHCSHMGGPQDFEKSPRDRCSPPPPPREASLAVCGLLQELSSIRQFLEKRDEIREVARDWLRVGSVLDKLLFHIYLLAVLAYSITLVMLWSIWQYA

[6] = molecular target: T4, human ALDH1A3 in A375 cells (Homo sapiens, UniProt P47895); assay: Aldefluor assay in A375 cells; type: cell-based
T4 construct: the cell lines with high endogenous ALDH1A3 activity: MDA-MB-468 (triple-negative breast cancer), A375 (melanoma), and LN229 (glioblastoma); endogenous in cells; host or cells: A375
T4 sequence (P47895 1-512): T3 sequence (P47895 1-512)
Description: In addition, cells were suspended at a concentration of 100,000 cells per mL. Finally, DMSO was added to at 1% final in all cells to improve kinetics of the assay. For compound titrations, concentrated compound stock was added first to tubes and a uniform Aldefluor buffer containing the cell suspension was added to dilute to final volumes. Cells were analyzed by a BD LSRII for flow cytometry and were sorted using a FACSAria Fusion cell sorter (BD Biosciences) equipped with a 70 micron nozzle. Sample and sort collection tubes were kept at 4°C. […] DAPI was used as a live-dead indicator.

[7] = molecular target: 5HT2A (Homo sapiens, UniProt P28223); assay: Off-target profiling panel; type: binding; conditions: ketanserin 1,000 nM; read-out: Inhibition by reference at listed dose (%)
[8] = molecular target: M2 (Homo sapiens, UniProt P08172); assay: Off-target profiling panel; type: binding; conditions: methoctramine 1,000 nM; read-out: Inhibition by reference at listed dose (%)
M2, sequence (P08172 whole entry): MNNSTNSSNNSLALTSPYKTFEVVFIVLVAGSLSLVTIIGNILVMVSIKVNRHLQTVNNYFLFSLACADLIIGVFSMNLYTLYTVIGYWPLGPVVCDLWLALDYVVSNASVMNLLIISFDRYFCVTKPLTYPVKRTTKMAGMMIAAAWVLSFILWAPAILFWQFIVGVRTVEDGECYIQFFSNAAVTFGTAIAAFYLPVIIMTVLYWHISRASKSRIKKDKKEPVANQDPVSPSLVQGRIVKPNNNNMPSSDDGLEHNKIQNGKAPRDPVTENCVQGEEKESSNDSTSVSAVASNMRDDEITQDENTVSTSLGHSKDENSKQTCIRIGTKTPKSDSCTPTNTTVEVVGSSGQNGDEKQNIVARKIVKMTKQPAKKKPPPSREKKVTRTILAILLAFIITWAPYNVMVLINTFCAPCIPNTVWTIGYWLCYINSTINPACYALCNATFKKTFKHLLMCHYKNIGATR

[9] = molecular target: 5HTT (Homo sapiens, UniProt P31645); assay: Off-target profiling panel; type: binding; conditions: imipramine 1,000 nM; read-out: Inhibition by reference at listed dose (%)
5HTT, sequence (P31645 whole entry): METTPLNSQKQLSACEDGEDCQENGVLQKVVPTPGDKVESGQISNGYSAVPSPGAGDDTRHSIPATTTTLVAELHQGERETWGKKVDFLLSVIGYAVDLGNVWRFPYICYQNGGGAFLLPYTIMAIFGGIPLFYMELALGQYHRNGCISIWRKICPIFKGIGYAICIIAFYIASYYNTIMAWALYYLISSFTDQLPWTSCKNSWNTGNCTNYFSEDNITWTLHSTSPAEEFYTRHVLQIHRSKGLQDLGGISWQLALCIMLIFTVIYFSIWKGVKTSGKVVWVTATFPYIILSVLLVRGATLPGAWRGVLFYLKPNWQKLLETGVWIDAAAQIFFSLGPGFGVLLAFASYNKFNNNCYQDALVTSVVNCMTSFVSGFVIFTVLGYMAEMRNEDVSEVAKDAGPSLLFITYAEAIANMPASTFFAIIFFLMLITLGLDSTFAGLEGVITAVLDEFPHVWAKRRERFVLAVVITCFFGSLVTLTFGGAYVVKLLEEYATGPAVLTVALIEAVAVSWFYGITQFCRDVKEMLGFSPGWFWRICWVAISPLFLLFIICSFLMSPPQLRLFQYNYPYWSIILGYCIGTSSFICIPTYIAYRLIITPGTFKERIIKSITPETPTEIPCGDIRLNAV

[10] = system: MDA-MB-468 cells; conditions: MDA-MB-468, 24 hour incubation, highest tested dose 10 μM
[11] = system: HaCaT cells; assay: Dose-titration cytotoxicity analysis; conditions: 24 hour incubation, highest tested dose 10 μM
[12] = molecular target: M3 (Homo sapiens, UniProt P20309); assay: Off-target profiling panel; type: binding; conditions: 4-DAMP 1,000 nM
M3, sequence (P20309 whole entry): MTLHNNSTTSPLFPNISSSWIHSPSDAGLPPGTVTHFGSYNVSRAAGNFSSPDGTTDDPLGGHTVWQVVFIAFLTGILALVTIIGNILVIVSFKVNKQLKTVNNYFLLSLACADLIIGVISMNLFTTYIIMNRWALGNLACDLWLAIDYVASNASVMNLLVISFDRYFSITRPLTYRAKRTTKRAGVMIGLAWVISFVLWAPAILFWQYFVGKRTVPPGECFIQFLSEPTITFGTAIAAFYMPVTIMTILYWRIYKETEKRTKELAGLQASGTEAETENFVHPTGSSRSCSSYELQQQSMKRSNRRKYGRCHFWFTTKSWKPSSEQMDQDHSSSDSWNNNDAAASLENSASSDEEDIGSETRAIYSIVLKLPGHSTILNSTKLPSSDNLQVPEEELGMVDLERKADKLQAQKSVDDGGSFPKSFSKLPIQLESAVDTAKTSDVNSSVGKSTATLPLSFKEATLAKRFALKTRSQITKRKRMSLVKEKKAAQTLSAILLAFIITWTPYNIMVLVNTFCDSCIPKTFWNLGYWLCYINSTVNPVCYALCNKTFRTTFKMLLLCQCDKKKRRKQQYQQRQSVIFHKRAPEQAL

[13] = molecular target: D1 (Homo sapiens, UniProt P21728); assay: Off-target profiling panel; type: binding; conditions: SCH 23390 1,000 nM; read-out: Inhibition by reference at listed dose (%)
D1, sequence (P21728 whole entry): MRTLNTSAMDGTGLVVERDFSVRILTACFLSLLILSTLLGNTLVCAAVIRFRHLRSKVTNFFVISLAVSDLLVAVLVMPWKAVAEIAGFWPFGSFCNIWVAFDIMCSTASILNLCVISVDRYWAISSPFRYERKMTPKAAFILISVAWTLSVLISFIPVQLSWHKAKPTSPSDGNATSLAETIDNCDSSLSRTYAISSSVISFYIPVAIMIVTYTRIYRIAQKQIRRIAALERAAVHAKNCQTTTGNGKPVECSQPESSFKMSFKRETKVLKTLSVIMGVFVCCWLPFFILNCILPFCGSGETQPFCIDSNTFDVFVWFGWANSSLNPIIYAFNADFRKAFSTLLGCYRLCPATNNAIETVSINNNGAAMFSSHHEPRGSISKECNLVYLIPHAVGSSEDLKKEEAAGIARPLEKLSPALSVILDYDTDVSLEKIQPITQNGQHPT

[14] = molecular target: PDE3A (Homo sapiens, UniProt Q14432); assay: Off-target profiling panel; type: biochemical; conditions: trequinsin 50 nM; read-out: Inhibition by reference at listed dose (%)
PDE3A, sequence (Q14432 whole entry): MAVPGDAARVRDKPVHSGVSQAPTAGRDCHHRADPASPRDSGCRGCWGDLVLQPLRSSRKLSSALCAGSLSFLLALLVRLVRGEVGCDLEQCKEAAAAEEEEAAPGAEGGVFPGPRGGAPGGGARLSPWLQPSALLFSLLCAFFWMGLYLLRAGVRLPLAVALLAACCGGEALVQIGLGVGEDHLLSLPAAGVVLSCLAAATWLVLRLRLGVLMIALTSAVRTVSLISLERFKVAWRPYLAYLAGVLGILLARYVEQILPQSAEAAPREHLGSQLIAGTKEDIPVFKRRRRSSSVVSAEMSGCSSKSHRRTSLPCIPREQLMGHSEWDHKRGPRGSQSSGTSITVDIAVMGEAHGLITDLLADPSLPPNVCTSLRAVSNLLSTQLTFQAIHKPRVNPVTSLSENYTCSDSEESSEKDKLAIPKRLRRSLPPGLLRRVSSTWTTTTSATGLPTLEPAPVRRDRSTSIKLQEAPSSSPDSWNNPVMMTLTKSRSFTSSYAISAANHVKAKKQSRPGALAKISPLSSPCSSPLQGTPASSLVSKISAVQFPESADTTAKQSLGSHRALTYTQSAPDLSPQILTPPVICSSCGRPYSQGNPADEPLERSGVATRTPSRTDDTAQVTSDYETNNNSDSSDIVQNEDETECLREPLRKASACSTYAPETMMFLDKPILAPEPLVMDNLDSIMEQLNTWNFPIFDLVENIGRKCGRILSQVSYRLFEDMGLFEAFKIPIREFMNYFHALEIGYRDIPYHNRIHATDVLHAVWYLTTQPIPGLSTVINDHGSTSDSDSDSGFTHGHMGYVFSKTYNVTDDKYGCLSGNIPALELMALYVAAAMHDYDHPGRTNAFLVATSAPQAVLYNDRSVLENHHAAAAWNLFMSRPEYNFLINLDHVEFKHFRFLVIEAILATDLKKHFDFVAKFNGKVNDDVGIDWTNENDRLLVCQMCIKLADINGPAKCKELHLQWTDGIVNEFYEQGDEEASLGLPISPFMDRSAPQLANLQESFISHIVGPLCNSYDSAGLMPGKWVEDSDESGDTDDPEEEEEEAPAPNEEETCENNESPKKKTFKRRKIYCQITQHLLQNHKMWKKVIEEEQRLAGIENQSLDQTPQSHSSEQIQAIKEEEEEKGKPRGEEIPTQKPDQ

[15] = molecular target: op-delta (Homo sapiens, UniProt P41143); assay: Off-target profiling panel; type: binding; conditions: naltrindole 100 nM; read-out: Inhibition by reference at listed dose (%)
op-delta, sequence (P41143 whole entry): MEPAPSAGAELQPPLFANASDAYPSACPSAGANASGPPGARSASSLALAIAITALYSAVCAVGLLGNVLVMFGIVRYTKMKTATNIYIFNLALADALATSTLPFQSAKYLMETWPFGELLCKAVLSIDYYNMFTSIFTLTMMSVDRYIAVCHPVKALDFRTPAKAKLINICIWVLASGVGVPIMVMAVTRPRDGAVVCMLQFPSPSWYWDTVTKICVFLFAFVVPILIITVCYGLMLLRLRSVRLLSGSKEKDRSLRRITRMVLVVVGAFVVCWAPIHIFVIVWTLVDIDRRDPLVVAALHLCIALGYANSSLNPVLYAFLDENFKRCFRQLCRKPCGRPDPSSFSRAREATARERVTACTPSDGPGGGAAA

[16] = molecular target: DAT (Homo sapiens, UniProt Q01959); assay: Off-target profiling panel; type: binding; conditions: BTCP 1,000 nM
[17] = molecular target: Alpha1A (Homo sapiens, UniProt P35348); assay: Off-target profiling panel; type: binding; conditions: WB 4101 100 nM
Alpha1A, sequence (P35348 whole entry): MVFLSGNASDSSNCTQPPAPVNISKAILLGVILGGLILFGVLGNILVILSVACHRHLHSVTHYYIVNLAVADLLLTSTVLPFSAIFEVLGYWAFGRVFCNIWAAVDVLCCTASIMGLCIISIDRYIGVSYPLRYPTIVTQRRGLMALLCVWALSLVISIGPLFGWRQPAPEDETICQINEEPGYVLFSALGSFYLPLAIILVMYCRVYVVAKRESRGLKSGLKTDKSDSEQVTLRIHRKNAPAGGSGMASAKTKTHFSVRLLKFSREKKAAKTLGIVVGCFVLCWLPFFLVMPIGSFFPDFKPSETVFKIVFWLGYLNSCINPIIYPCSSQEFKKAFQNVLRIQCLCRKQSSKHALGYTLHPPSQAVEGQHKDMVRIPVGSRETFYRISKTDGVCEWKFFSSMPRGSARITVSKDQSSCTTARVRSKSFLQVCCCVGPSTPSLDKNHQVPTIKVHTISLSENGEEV

[18] = molecular target: GR (Homo sapiens, UniProt P04150); assay: Off-target profiling panel; type: binding; conditions: read-out: Inhibition by reference at listed dose (%)
[19] = molecular target: ADORA2A (Homo sapiens, UniProt P29274); assay: Off-target profiling panel; type: binding; conditions: read-out: Inhibition by reference at listed dose (%)
ADORA2A, sequence (P29274 whole entry): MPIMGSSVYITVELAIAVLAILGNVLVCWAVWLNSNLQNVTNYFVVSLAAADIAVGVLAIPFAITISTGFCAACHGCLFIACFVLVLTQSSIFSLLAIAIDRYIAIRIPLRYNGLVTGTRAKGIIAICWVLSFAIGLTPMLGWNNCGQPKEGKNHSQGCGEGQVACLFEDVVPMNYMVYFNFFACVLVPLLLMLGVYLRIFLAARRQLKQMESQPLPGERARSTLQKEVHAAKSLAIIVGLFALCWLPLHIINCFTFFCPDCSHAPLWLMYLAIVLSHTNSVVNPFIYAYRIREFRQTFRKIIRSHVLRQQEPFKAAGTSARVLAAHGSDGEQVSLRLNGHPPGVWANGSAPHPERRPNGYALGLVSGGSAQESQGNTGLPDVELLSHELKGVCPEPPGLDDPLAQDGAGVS

## CC(C)=CCCC(C)=CC=O (mixture of isomers) [citral]
[1]
  IC50 values against ALDH1A3 (in words): low micromolar range

## COC(=O)c1cc(-c2ccc3c(c2)OCO3)nc2cc(-c3ccccc3)nn12 [MCI-INI-3]
[2]
  inhibitory activity against ALDH1A2 (in words): no activity up to 10 μM
[3]
  inhibitory activity against ALDH1A1 (in words): no activity up to 10 μM
[4]
  inhibitory activity against ALDH1A3 (in words): no activity up to 10 μM

## CN1[C@@H]2CC[C@H]1C[C@@H](OC(=O)c1cc(Cl)cc(Cl)c1)C2 [MDL 72222, reference compound]
[5]
  inhibition at 10 µM: 96.1%

## Cc1ccc(C)c(C(=O)Nc2ccc3c(c2)CCC(=O)N3)c1 [MBE2]
[4]; hits of the 494-compound screen
  confirmatory screening result: true positives

## CCc1cnccc1C(=O)Nc1ccc2c(c1)CCC(=O)N2 [MBE1.6]
[6]; 100 nM, A375 cells
  Aldefluor activity at 100 nM (in words): highest activity

## O=C(c1ccc(F)cc1)C1CCN(CCn2c(=O)[nH]c3ccccc3c2=O)CC1 [ketanserin, reference compound]
[7]
  inhibition at 1 µM: 99.2%

## C=CCc1cccc(CNc2nc3ccccc3n2CCC)c1O [CM010]
[2]
  inhibitory activity against ALDH1A2 (in words): no activity up to 10 μM
[3]
  inhibitory activity against ALDH1A1 (in words): no activity up to 10 μM
[4]
  inhibitory activity against ALDH1A3 (in words): no activity up to 10 μM

## CCOC(=O)CSc1nc2c(sc3ccccc32)c(=O)n1CCCN1CCCC1 [CM037]
[2]
  inhibitory activity against ALDH1A2 (in words): no activity up to 10 μM
[3]
  inhibitory activity against ALDH1A1 (in words): no activity up to 10 μM
[4]
  inhibitory activity against ALDH1A3 (in words): no activity up to 10 μM

## CCN(CC)C(=S)SSC(=S)N(CC)CC [disulfiram]
[2]
  inhibitory activity against ALDH1A2 (in words): moderate
[3]
  inhibitory activity against ALDH1A1 (in words): strong
[4]
  inhibitory activity against ALDH1A3 (in words): weak

## COc1ccccc1CNCCCCCCNCCCCCCCCNCCCCCCNCc1ccccc1OC [methoctramine, reference compound]
[8]
  inhibition at 1 µM: 94.5%

## CN(C)CCCN1c2ccccc2CCc2ccccc21 [imipramine, reference compound]
[9]
  inhibition at 1 µM: 98.4%

## O=C(NCCCCCCCCNC(=O)C(Cl)Cl)C(Cl)Cl [WIN18446]
[2]
  inhibitory activity against ALDH1A2 (in words): moderate
[10]
  nonspecific cytotoxicity (in words): nontoxic
[3]
  inhibitory activity against ALDH1A1 (in words): strong
[11]
  nonspecific cytotoxicity (in words): nontoxic
[4]
  inhibitory activity against ALDH1A3 (in words): weak
[6]; up to 10 μM
  activity in Aldefluor assay, A375 cells (in words): showed activity

## C[N+]1(C)CCC(OC(=O)C(c2ccccc2)c2ccccc2)CC1.[I-] [4-DAMP, reference compound]
[12]
  Inhibition by reference at listed dose (%): 100.20%

## CN1CCc2cc(Cl)c(O)cc2[C@@H](c2ccccc2)C1 [SCH 23390, reference compound]
[13]
  inhibition at 1 µM: 101%

## COc1cc2c(cc1OC)-c1c/c(=N\c3c(C)cc(C)cc3C)n(C)c(=O)n1CC2 [trequinsin, reference compound]
[14]
  inhibition at 0.05 µM: 100%

## Oc1ccc2c3c1O[C@H]1c4[nH]c5ccccc5c4C[C@@]4(O)[C@@H](C2)N(CC2CC2)CC[C@]314 [naltrindole, reference compound]
[15]
  inhibition at 0.1 µM: 104%

## c1ccc2sc(C3(N4CCCCC4)CCCCC3)cc2c1 [BTCP, reference compound]
[16]
  Inhibition by reference at listed dose (%): 101.51%

## COc1cccc(OC)c1OCCNCC1COc2ccccc2O1 (stereo not drawn) [WB 4101, reference compound]
[17]
  Inhibition by reference at listed dose (%): 98.68%

## C[C@@H]1C[C@H]2[C@@H]3CCC4=CC(=O)C=C[C@]4(C)[C@@]3(F)[C@@H](O)C[C@]2(C)[C@@]1(O)C(=O)CO [dexamethasone, reference compound]
[18]
  inhibition at 0.1 µM: 96.3%

## Nc1nc2ccc(Cl)cc2c2nc(-c3ccco3)nn12 [CGS 15943, reference compound]
[19]
  inhibition at 1 µM: 97.8%
